Data from ChEMBL document CHEMBL1221321, “Synthesis and properties of macrolones characterized by two ether bonds in the linker” (Bioorg Med Chem, 2010).
Converted amounts (≈) assume the structure as drawn.

How the values were obtained:
THP-1 = assay: Cytotoxicity against human THP1 cells after 24 hrs by MTS assay; type: cell-based; conditions: THP-1, 24 h
HepG2 = assay: Cytotoxicity against human HepG2 cells after 24 hrs by MTS assay; type: cell-based; conditions: HepG2, 24 h
Haemophilus influenzae = assay: Antibacterial activity against Haemophilus influenzae ATCC 49247 by broth microdilution method; type: functional
Streptococcus pyogenes [1] = assay: Antibacterial activity against constitutive MLS resistance Streptococcus pyogenes 166 GR-Micro by broth microdilution method; type: functional
Streptococcus pneumoniae [2] = assay: Antibacterial activity against constitutive MLS resistance Streptococcus pneumoniae 58 by broth microdilution method; type: functional
Streptococcus pyogenes [3] = assay: Antibacterial activity against efflux-mediated macrolide-resistance Streptococcus pyogenes 2 by broth microdilution method; type: functional
Streptococcus pneumoniae [4] = assay: Antibacterial activity against efflux-mediated macrolide-resistance Streptococcus pneumoniae Ci137 by broth microdilution method; type: functional
Staphylococcus aureus [5] = assay: Antibacterial activity against efflux-mediated macrolide-resistance Staphylococcus aureus PK1 by broth microdilution method; type: functional
Streptococcus pyogenes [6] = assay: Antibacterial activity against inducible resistance to macrolide, licosamide and streptogramin Streptococcus pyogenes 11 by broth microdilution method; type: functional
Streptococcus pneumoniae [7] = assay: Antibacterial activity against inducible resistance to macrolide and constitutive resistance to lincosamide Streptococcus pneumoniae 134 GR M by broth microdilution method; type: functional
Staphylococcus aureus [8] = assay: Antibacterial activity against inducible resistance to macrolide, licosamide, and streptogramin Staphylococcus aureus 90265/97 by broth microdilution method; type: functional

| Structure (SMILES) | IC50 (THP-1) [µM] | IC50 (HepG2) [µM] | MIC (Haemophilus influenzae) [µg/mL] | MIC (Streptococcus pyogenes [1]) [µg/mL] | MIC (Streptococcus pneumoniae [2]) [µg/mL] | MIC (Streptococcus pyogenes [3]) [µg/mL] | MIC (Streptococcus pneumoniae [4]; read-out: MIC) [µg/mL] | MIC (Staphylococcus aureus [5]) [µg/mL] | MIC (Streptococcus pyogenes [6]; read-out: MIC) [µg/mL] | MIC (Streptococcus pneumoniae [7]) [µg/mL] | MIC (Staphylococcus aureus [8]) [µg/mL] | MIC (Streptococcus pneumoniae [4]) [µg/mL] | MIC (Streptococcus pyogenes [6]) [µg/mL] |
| --- | --- | --- | --- | --- | --- | --- | --- | --- | --- | --- | --- | --- | --- |
| CC[C@H]1OC(=O)[C@H](C)[C@@H](O[C@H]2C[C@@](C)(OC)[C@@H](OCCCOCCCCc3ccc4c(c3)c(=O)c(C(=O)O)cn4CC)[C@H](C)O2)[C@H](C)[C@@H](O[C@@H]2O[C@H](C)C[C@H](N(C)C)[C@H]2O)[C@](C)(O)C[C@@H](C)CN(C)[C@H](C)[C@@H](O)[C@]1(C)O | 22 | 46 | 0.5 (≈ 0.464 µM) | ≤ 0.125 | ≤ 0.125 | ≤ 0.125 | ≤ 0.125 | ≤ 0.125 | ≤ 0.125 | ≤ 0.125 | ≤ 0.125 |  |  |
| CC[C@H]1OC(=O)[C@H](C)[C@@H](O[C@H]2C[C@@](C)(OC)[C@@H](OCCCOCCCc3ccc4c(c3)c(=O)c(C(=O)O)cn4C3CC3)[C@H](C)O2)[C@H](C)[C@@H](O[C@@H]2O[C@H](C)C[C@H](N(C)C)[C@H]2O)[C@](C)(O)C[C@@H](C)CN(C)[C@H](C)[C@@H](O)[C@]1(C)O | 48 | > 50 | 2 (≈ 1.86 µM) | ≤ 0.125 | ≤ 0.125 | ≤ 0.125 | ≤ 0.125 | ≤ 0.125 | ≤ 0.125 | ≤ 0.125 | ≤ 0.125 |  |  |
| CC[C@H]1OC(=O)[C@H](C)[C@@H](O[C@H]2C[C@@](C)(OC)[C@@H](OCCCOCCCCCc3ccc4c(c3)c(=O)c(C(=O)O)cn4N(C)C)[C@H](C)O2)[C@H](C)[C@@H](O[C@@H]2O[C@H](C)C[C@H](N(C)C)[C@H]2O)[C@](C)(O)C[C@@H](C)CN(C)[C@H](C)[C@@H](O)[C@]1(C)O | 8 | 13 | 1 (≈ 0.903 µM) | 0.25 (≈ 0.226 µM) | ≤ 0.125 | ≤ 0.125 | ≤ 0.125 | ≤ 0.125 | ≤ 0.125 | 0.5 (≈ 0.451 µM) | ≤ 0.125 |  |  |
| CC[C@H]1OC(=O)[C@H](C)[C@@H](O[C@H]2C[C@@](C)(OC)[C@@H](OCCCOCCCc3cc4c5c(c3)c(=O)c(C(=O)O)cn5C(C)(C)CO4)[C@H](C)O2)[C@H](C)[C@@H](O[C@@H]2O[C@H](C)C[C@H](N(C)C)[C@H]2O)[C@](C)(O)C[C@@H](C)CN(C)[C@H](C)[C@@H](O)[C@]1(C)O | 40 | > 50 | 2 (≈ 1.81 µM) | 1 (≈ 0.904 µM) | ≤ 0.125 |  |  | 0.13 (≈ 0.117 µM) |  | ≤ 0.125 | 0.06 (≈ 0.0542 µM) | < 0.02 | < 0.02 |
| CC[C@H]1OC(=O)[C@H](C)C(=O)[C@H](C)[C@@H](O[C@@H]2O[C@H](C)C[C@H](N(C)C)[C@H]2O)[C@](C)(OC)C[C@@H](C)C(=O)[C@H](C)[C@H]2N(CCCCn3cnc(-c4cccnc4)c3)C(=O)O[C@]12C [TELITHROMYCIN] |  |  | 1 (≈ 1.23 µM) | 16 (≈ 19.7 µM) | 0.25 (≈ 0.308 µM) | 0.5 (≈ 0.616 µM) | 0.5 (≈ 0.616 µM) | 0.125 (≈ 0.154 µM) | ≤ 0.125 | 0.25 (≈ 0.308 µM) | ≤ 0.125 |  |  |
| CC[C@H]1OC(=O)[C@H](C)[C@@H](O[C@H]2C[C@@](C)(OC)[C@@H](O)[C@H](C)O2)[C@H](C)[C@@H](O[C@@H]2O[C@H](C)C[C@H](N(C)C)[C@H]2O)[C@](C)(O)C[C@@H](C)CN(C)[C@H](C)[C@@H](O)[C@]1(C)O [AZITHROMYCIN] |  |  | 1 (≈ 1.34 µM) | > 64 | > 64 | 8 (≈ 10.7 µM) | 8 (≈ 10.7 µM) | > 64 | 16 (≈ 21.4 µM) | > 64 | > 64 |  |  |
| CC[C@H]1OC(=O)[C@H](C)[C@@H](O[C@H]2C[C@@](C)(OC)[C@@H](OCCCOCCCCCc3ccc4c(c3)c(=O)c(C(=O)O)cn4CC)[C@H](C)O2)[C@H](C)[C@@H](O[C@@H]2O[C@H](C)C[C@H](N(C)C)[C@H]2O)[C@](C)(O)C[C@@H](C)CN(C)[C@H](C)[C@@H](O)[C@]1(C)O | 9 | 20 | 2 (≈ 1.83 µM) | 0.25 (≈ 0.229 µM) | ≤ 0.125 | ≤ 0.125 | ≤ 0.125 | ≤ 0.125 | ≤ 0.125 | 0.5 (≈ 0.458 µM) | ≤ 0.125 |  |  |
| CC[C@H]1OC(=O)[C@H](C)[C@@H](O[C@H]2C[C@@](C)(OC)[C@@H](OCCCOCCCCc3ccc4c(c3)c(=O)c(C(=O)O)cn4C3CC3)[C@H](C)O2)[C@H](C)[C@@H](O[C@@H]2O[C@H](C)C[C@H](N(C)C)[C@H]2O)[C@](C)(O)C[C@@H](C)CN(C)[C@H](C)[C@@H](O)[C@]1(C)O | 20 | 47 | 0.5 (≈ 0.459 µM) | ≤ 0.125 | ≤ 0.125 | ≤ 0.125 | ≤ 0.125 | ≤ 0.125 | ≤ 0.125 | ≤ 0.125 | ≤ 0.125 |  |  |
